Measurements published in US4761398A, “Method of inducing birds to molt” (Embrex, Inc., priority 1986, dated 1988).

Experiments:
[1] = system: single combed White Leghorn hens; format: in vivo
Source text: (§1) After the two week pre-molt adjustment period, the hens were randomly assigned to each of eight different groups. These treatment groups were as follows: (1) control, (2) forced molt, (3) chemical molt-injected, (4) vehicle control-injected, (5) chemical molt-microcapsules A, (6) vehicle control-microcapsules A, (7) chemical molt-microcapsules B, and (8) vehicle control-microcapsules B.
(§2) [D-Trp^6 ]LHRH was used as the LHRH receptor ligand for the chemical molt groups. The "chemical molt-injected" group received intramuscular (breast) injections of 25 micrograms/day of [D-Trp^6 ]LHRH for 10 consecutive days beginning on day 14. Alternate pectoral (breast) areas were injected each day. The "chemical molt-microcapsule" groups received a single intramuscular (breast) injection of microencapsulated [D-Trp^6 ]LHRH on day zero. This preparation of microcapsules provided a controlled release of 25 micrograms [D-Trp^6 ]LHRH per day for 15 consecutive days.
On day 14, the microcapsule injected groups received intramuscular injections of lactide/glycolide copolymer microcapsules which had [D-Trp^6 ]LHRH incorporated therein. The ligand-containing microcapsules administered the "Microcapsules A" group were prepared and supplied by Debiopharm (Lausanne, Switzerland). These microcapsules were prepared by a phase-separation process to produce a free-flowing powder of spherical particles consisting of [D-Trp^6 ]LHRH (2% wt/wt) distributed within a polymeric matrix of 53:47(mol %) poly(DL-lactide-co-glycolide) (98% wt/wt) with an inherent viscosity of 0.7 dl/g. The microcapsules were 50 micrometers or less in diameter. […] Photomicrographs of similar microcapsules are presented in T. W. Redding, et al., Proc. Natl. Acad. Sci. U.S.A., 81, 5845 (Sept. 1984).
After the forced molt group achieved a 30% body weight loss, i.e., after 10 days of fasting, six hens from each group were necropsied. The liver, abdominal adipose tissue (fat pad), ovary plus ova and oviduct weights were measured. The remaining forced molt hens received a limited quantity of feed for two days, and were then fed ad libitum. For all groups, body weight and feed consumption were measured weekly. The lighting regime was increased, at weekly intervals, from natural day length to 17 hour light: seven hour dark. For the forced molt and chemical molt groups, when the first egg was produced after the molt, body weights were measured and body weights taken for the 10 selected birds.

[2] = system: single combed White Leghorn hens; test: Mortality; format: in vivo
Source text: as §1, §2
On day 14, the microcapsule injected groups received intramuscular injections of lactide/glycolide copolymer microcapsules which had [D-Trp^6 ]LHRH incorporated therein. The ligand-containing microcapsules administered the "Microcapsules A" group were prepared and supplied by Debiopharm (Lausanne, Switzerland). […]

[3] = Body weight of hens through the molt and production period; format: in vivo, single combed White Leghorn hens
Procedure: During the experiment, two birds were assigned to each cage (12"×18"). The hens were maintained in their cages for two weeks prior to the molt. They received a 17 hour light: 7 hour dark photoperiod throughout this phase of the experiment. During this time, the following parameters were measured:(a) body weight (weekly); (b) feed consumption (all hens received a common layer ration, and the feed consumed during this two week period was measured); (C) production records (daily); and (d), total egg weight, egg shell weight, and egg specific gravity (measured on three consecutive days each week). Serum samples were taken once, from 10 randomly selected hens from each treatment group, and saved for future study. After the two week pre-molt adjustment period, the hens were randomly assigned to each of eight different groups. These treatment groups were as follows: (1) control, (2) forced molt, (3) chemical molt-injected, (4) vehicle control-injected, (5) chemical molt-microcapsules A, (6) vehicle control-microcapsules A, (7) chemical molt-microcapsules B, and (8) vehicle control-microcapsules B. The hens then received a seven day pre-molt treatment of a 24 hour light, zero hour dark photoperiod. On day 14 of the experiment the photoperiod was then reduced to natural day length for all treatments. Feed was made available ad libitum for all groups except the forced molt group. The forced molt group was deprived of food, but not of water, until a 30% body weight loss occurred (10 days of fasting). [D-[…] ]LHRH was used as the LHRH receptor ligand for the chemical molt groups. The "chemical molt-injected" group received intramuscular (breast) injections of 25 micrograms/day of [D-[…] ]LHRH for 10 consecutive days beginning on day 14. Alternate pectoral (breast) areas were injected each day. The "chemical molt-microcapsule" groups received a single intramuscular (breast) injection of microencapsulated [D-[…] ]LHRH on day zero. This preparation of microcapsules provided a controlled release of 25 micrograms [D-[…] ]LHRH per day for 15 consecutive days. For all treatments, body weights were measured at day zero and every three days thereafter, until the forced molt group achieved a 30% weight loss. Serum samples were periodically collected from 10 hens randomly selected from each group, and saved for future analysis. The same 10 hens from each group were bled at each collection. On day 14, the microcapsule injected groups received intramuscular injections of lactide/glycolide copolymer microcapsules which had [D-[…] ]LHRH incorporated therein. The ligand-containing microcapsules administered the "Microcapsules A" group were prepared and supplied by Debiopharm (Lausanne, Switzerland). These microcapsules were prepared by a phase-separation process to produce a free-flowing powder of spherical particles consisting of [D-[…] ]LHRH (2% wt/wt) distributed within a polymeric matrix of 53:47(mol %) poly(DL-lactide-co-glycolide) (98% wt/wt) with an inherent viscosity of 0.7 dl/g. The microcapsules were 50 micrometers or less in diameter. […] Photomicrographs of similar microcapsules are presented in T. W. Redding, et al., Proc. Natl. Acad. Sci. […]. 1984). Microcapsules were suspended in disposable syringes in vehicle containing 2% carboxymethyl cellulose and 1% "TWEEN 20" in water. After thoroughly mixing the suspension, aliquots calculated to have released a dose of 25 micrograms/day for 15 consecutive days were injected into the breast muscle of the hens. We weighed the microcapsules directly into disposable 3 ml syringes. The plunger of a plugged syringe containing microcapsules (without vehicle) was pulled back to the 1.5-2 cc mark. The hub of the syringe was then placed against a vortex mixer and the syringe vortexed rapidly for about 20 seconds, or until most of the clumps of microbeads were broken and distributed along the barrel of the syringe. […]

[4] = hens killed immediately after the molt, Day 23

In the case of [D-Trp^6 ]LHRH [D-Trp^6 --LHRH], the “involution of reproductive tract” value ([1]; both treated groups) is reported as “exhibited involution of their reproductive tracts”, the “Ovary Wt.” value [1, 4] is reported as 10.38 g and the “Oviduct Wt.” value [1, 4] is reported as 17.65 g. The “Abdominal Adipose Tissue Wt.” value ([1]; in vivo) was 55.73 g, the “Body Wt.” value ([1]; in vivo) was 1.784 kg and the “MORTALITY: Number of Hens That Died” value ([2]; Evaluated from day 28 to day 94) was 0. For the same substance, the mortality in words ([2]; groups that received the ligand) was “no mortality occurred”, the “MEAN BODY WEIGHT” value ([3]; Day 5, before treatment) was 1.669 kg and the “MEAN BODY WEIGHT” value ([3]; Day 12, before treatment (treatment started day 13/14)) was 1.722 kg. For the same substance, the “MEAN BODY WEIGHT” value ([3]; Day 17, 25 micrograms/day i.m.) was 1.765 kg, the “MEAN BODY WEIGHT” value ([3]; Day 22, 25 micrograms/day i.m.) was 1.704 kg and the “MEAN BODY WEIGHT” value ([3]; Day 27) was 1.637 kg. The “MEAN BODY WEIGHT” value ([3]; Day 33) was 1.654 kg, the “MEAN BODY WEIGHT” value ([3]; Day 40) was 1.747 kg and the “MEAN BODY WEIGHT” value ([3]; Day 47) was 1.760 kg. The “MEAN BODY WEIGHT” value ([3]; Day 54) was 1.761 kg, the “MEAN BODY WEIGHT” value ([3]; Day 61) was 1.802 kg and the “MEAN BODY WEIGHT” value ([3]; Day 75) was 1.838 kg. For the same substance, the “MEAN BODY WEIGHT” value ([3]; Day Zero, before treatment) was 1.720 kg.
